Counter-ions that a name gives are not always drawn.
Legend:
[1] = tested on: patients with relapsed small cell lung cancer; experiment: Multicenter, randomized, double-blind, placebo-controlled phase II clinical study; assay type: in vivo, human
Method: A multicenter, randomized, double-blind and placebo-controlled phase II clinical study was conducted for patients with relapsed small cell lung cancer characterized by presence of measurable lesions and prior standard treatment. In this study; 120 patients were enrolled and randomized to receive oral administration of 1 capsule of the dihydrochloride of the compound of formula I at 12 mg/0 mg once daily. The oral administration was continued for 2 weeks and interrupted for 1 week, i.e., 1 treatment cycle took 3 weeks (21 days). These patients aged 18-75 were treated with the capsule of the dihydrochloride of the compound of formula I and placebo control, and patients who had previously used other targeted drugs (such as sunitinib, bevacizumab, and endostar) and immunotargeted drugs were excluded. In the case of progressive disease (PD) determined by the response evaluation criteria or judged clinically; treatment with other anti-tumor drugs (such as chemotherapy; targeted therapy or biological agent therapy) influencing the judgment of efficacy; unexpected pregnancy; death and the like, the administration was interrupted (terminated) for a subject. For patients with disease under control (CR+PR+SD) and tolerable adverse reactions, the administration was continued. For patients who were unsuitable for continued administration judged by the investigator or were evaluated as PD according to RECIST 1.1 criteria, the administration was terminated. During the administration, depending on the drug-related toxicity degree and the possible efficacy benefit of a patient, the investigator determined whether to adjust the dosage, and the adjustable dosage was 8 mg/0 mg or 10 mg/0 mg. The primary efficacy endpoint was progression-free survival (PFS), and the secondary efficacy endpoints were overall survival (OS), objective response rate (ORR) (CR+PR), disease control rate (DCR) (CR+PR+SD), quality of life score and safety: The objective efficacy endpoint was evaluated according to the response evaluation criteria in solid tumor (RECIST 1.1). All statistical analyses were conducted using the SAS 9.2 statistical analysis software programming. All statistical tests were conducted using bilateral test. When P value≤0.05, the tested difference was considered statistically significant, with the confidence interval being 95% confidence. For the primary efficacy endpoint PFS, 50% (median) PFS and PFS at different time points after the start of the treatment were calculated by using the product limit method according to the data situation, and the two groups were compared using Log-Rank test. For OS, 50% (median) OS was calculated by using the product limit method according to the data situation, and the two groups were compared using Log-Rank test. The full analysis set (FAS) was used for the statistical dataset.

[2] = tested on: small cell lung cancer with liver and brain metastases; experiment: Case of a patient with small cell lung cancer with liver and brain metastases (CT follow-up); assay type: in vivo, human
Method: A person was pathologically diagnosed with small cell lung cancer of the left lower lobe in October 2013 after surgery. On Dec. […] The patient was admitted to the hospital for one cycle of liposomal paclitaxel+carboplatin+temozolomide chemotherapy and was discharged on December 28.
One cycle of TC regimen (paclitaxel+carboplatin) was started on Jan. 17, 2017, and the efficacy was evaluated as PD on Feb. 10, 2017. One cycle of IP regimen (irinotecan 120 mg d1, 80 mg d8; cisplatin 100 mg d1) was started on Feb. 16, 2017.
On May 12, 2017, oral administration of a capsule of the dihydrochloride of the compound of formula I at 12 mg was started once daily for 2 weeks and interrupted for 1 week, every 3-week as one treatment cycle until PD or intolerance.
The CT results were as follows: • After the first treatment cycle: target lesion: 63 mm; non-target lesions: non-CR/non-PD. • After the second treatment cycle: target lesion: 65 mm; non-target lesions: non-CR/non-PD. • After the fourth treatment cycle: target lesion: 66 mm; non-target lesions: non-CR/non-PD. • After the sixth treatment cycle: target lesion: 72 mm; non-target lesions: non-CR/non-PD. 1-20. (canceled)

[3] = CR or PR achieved with second-line chemotherapy: No
[4] = CR or PR achieved with second-line chemotherapy: Yes
[5] = all patients, FAS, capsule 12 mg oral once daily, 2 weeks on / 1 week off
[6] = brain metastasis upon enrollment: Yes
[7] = clinical stage before randomization: extended stage
[8] = after the fourth treatment cycle
[9] = after the second treatment cycle
[10] = after the sixth treatment cycle

COc1cc2c(Oc3ccc4[nH]c(C)cc4c3F)ccnc2cc1OCC1(N)CC1 [1-[[[4-(4-fluoro-2-methyl-1H-indol-5-yl)oxy-6-methoxyquinolin-7-yl]oxy]methyl]cyclopropylamine dihydrochloride]
Overall survival P50 [1, 3]: 7.29 month | Progression-free survival P50 [1, 3]: 4.11 month | Overall survival P50 [1, 4]: 6.80 month | Progression-free survival P50 [1, 4]: 2.79 month | Overall survival of patients (OS), Median (95% CI) [1, 5]: 7.29(6.50, 10.51) month | Progression-free survival of patients (PFS), Median (95% CI) [1, 5]: 4.07(2.79, 4.24) month | Overall survival P50 ([1]; brain metastasis upon enrollment: No): 8.80 month | Overall survival P50 [1, 6]: 6.08 month | Progression-free survival P50 [1, 6]: 3.84 month | Overall survival P50 ([1]; chemotherapy line: second-line): 7.29 month | Progression-free survival P50 ([1]; chemotherapy line: second-line): 4.11 month | Overall survival P50 [1, 7]: 8.05 month | Progression-free survival P50 [1, 7]: 3.84 month | Progression-free survival P50 ([1]; clinical stage before randomization: limited stage): 4.83 month | Progression-free survival P50 ([1]; treated with docetaxel: No): 4.07 month | Progression-free survival P50 ([1]; treated with docetaxel: Yes): 2.83 month | Progression-free survival P50 ([1]; treated with irinotecan + platinum: No): 2.83 month | Progression-free survival P50 ([1]; treated with irinotecan + platinum: Yes): 4.07 month | Progression-free survival P50 ([1]; treated with paclitaxel: No): 4.11 month | Progression-free survival P50 ([1]; treated with paclitaxel: Yes): 2.86 month | target lesion (CT) ([2]; after the first treatment cycle, liver nodes, 64 mm before treatment, 12 mg once daily 2 weeks on / 1 week off): 63 mm | non-target lesions (CT) ([2]; after the first treatment cycle, multiple metastases in the brain): non-CR/non-PD | non-target lesions (CT) [2, 8]: non-CR/non-PD | target lesion (CT) [2, 8]: 66 mm | non-target lesions (CT) [2, 9]: non-CR/non-PD | target lesion (CT) [2, 9]: 65 mm | non-target lesions (CT) [2, 10]: non-CR/non-PD | target lesion (CT) [2, 10]: 72 mm | tolerability of the administration ([2]; capsule 12 mg oral once daily, 2 weeks on / 1 week off): well tolerated

— patent publication US20250367187A1, “QUINOLINE DERIVATIVE USED FOR TREATING SMALL CELL LUNG CANCER” (CHIA TAI TIANQING PHARMACEUTICAL GROUP CO., LTD., priority 2018, published 2025)
